Values after ≈ are worked out from the molar mass of the structure shown. Like-named read-outs stand apart in the source and are kept apart here.
Key:
[1] = test system: herpes simplex virus type 1 (Miyama strain); experiment: Antiviral activity against HSV-1 in vitro, inhibition of virus-induced CPE in GMK cells (Test Example 1); assay type: cell-based, HSV-1 (Miyama strain); conditions: Human alphaherpesvirus 1, GMK cells, 1% fetal bovine serum, read-out: Antiviral Activity (ΔTCID₅₀(log₁₀))
Method: (§1) Confluent GMK cells (derived from green monkey kidney) in 96-well plates were infected with HSV-1 (Miyama strain) in the presence of various concentrations of test compounds. […] The virus titer (TCID₅₀) was determined from CPE of virus infected culture. Antivirus effects of test compounds were calculated from TCID₅₀ values of test compound treated and control cultures and represented by ΔTCID₅₀(log₁₀). Test compounds were dissolved in MEM medium, ethanol or DMSO to 10 mg/ml, and diluted with MEM medium supplemented with 1% fetal bovineserum.

HIV = experiment: Inhibition of HIV-induced cytopathogenicity in MT-4 cells; assay type: cell-based
Method: MT-4 cells (lymphoma derived from human T cell leukemia) in 96-well plate were infected with […] in the presence of various concentrations of test compounds. After incubation, inhibitory effect of HIV-induced CPE by the test compounds and cytotoxicity were microscopically observed. […]
Further, since the compounds of the present invention have a chemical structure different from the conventional antiviral substances, it is useful for the prevention or treatment of the infectious diseases caused by viruses resistant to the conventional antiviral substances.

GMK cells [2] = experiment: Cytotoxicity observed microscopically in GMK cells (Test Example 1); assay type: cell-based, green monkey; conditions: GMK cells, in parentheses
Method: as §1
In Table 1, parentheses indicate the cytotoxicity of these compounds. (-) and (±) indicate no cytotoxicity and slight cytotoxicity, respectively.

MT-4 cells = experiment: Minimum cytotoxic concentration in MT-4 cells; assay type: cell-based, human
Method: MT-4 cells (lymphoma derived from human T cell leukemia) in 96-well plate were infected with […] in the presence of various concentrations of test compounds. After incubation, inhibitory effect of HIV-induced CPE by the test compounds and cytotoxicity were microscopically observed. […] TABLE 6 In Table 6, parentheses indicate the minimum cytotoxic concentration of test compounds.

HSV-1 (Miyama strain) = experiment: Anti HSV-1 activity in vivo, intraperitoneally infected mice; design: species or system Male BALB/c mice; conditions: 322 PFU (10LD₅₀) HSV-1
Method: Male BALB/c mice (5 weeks of age) were intraperitoneally infected with 322 PFU (plaque forming unit, 10LD₅₀) of HSV-1 (Miyama strain). Twenty one days later, survival ratio and mean survival days were evaluated. Test compounds were dispersed in 5% arabic gum/physiological saline, and intraperitoneally administered at 10 mg and 20 mg/kg. Treatment began just after virus inoculation and continued for 5 days.

[3] = test system: herpes simplex virus type 1 (Miyama strain); experiment: Antiviral activity against HSV-1 in vitro, inhibition of virus-induced CPE in GMK cells (Test Example 2); assay type: cell-based, HSV-1 (Miyama strain); conditions: 0.5% fetal bovine serum
Method: (§2) Confluent GMK cells (derived from green monkey kidney) in 96-well plates were infected with HSV-1 (Miyama strain) in the presence of various concentrations of test compounds. After incubation, virus-induced cytopathic effect (CPE), inhibitory effect of CPE by the test compound and cytotoxicity were microscopically observed. The virus titer (TCID₅₀) was determined from CPE of virus infected culture. Ancivirus effects of test compounds were calculated from TCID₅₀ values of test compound treated and control cultures and represented by ΔTCID₅₀(log₁₀). Test compounds were dissolved in MEM medium, ethanol or DMSO to 10 mg/ml, and diluted with MEM medium supplemented with 0.5% fetal bovine serum.

GMK cells [4] = experiment: Cytotoxicity observed microscopically in GMK cells (Test Example 2); assay type: cell-based, green monkey; design: key: -: no cytotoxicity; ±: slight cytotoxicity; +: cytotoxicity with observable antiviral effect; conditions: in parentheses
Method: as §2
In Table 4, parentheses indicate the cytotoxicity of these compounds. (-), (±) and (+) indicate no cytotoxicity, slight cytotoxicity and cytotoxicity with observable antiviral effect, respectively.

[5] = Human immunodeficiency virus 1, MT-4 cells, minimum inhibitory concentration, read-out: Anti-HIV Activity (MIC, µg/ml)
[6] = 10 mg/kg intraperitoneally for 5 days
[7] = 20 mg/kg intraperitoneally for 5 days
[8] = Human immunodeficiency virus 1, read-out: Anti-HIV Activity (MIC, µg/ml)

With `CCCCC/C=C\C/C=C\CCCCCCCC(=O)N1CCN(c2ccccc2Cl)CC1` [Compound of Example 8, 1-(2-Chlorophenyl)-4-[(Z,Z)-9,12-octadecadienoyl]piperazine] the log reduction at 10 µg/mL [1] was 2, the MIC (HIV; [5]) was 16 µg/mL (≈ 34.8 µM) and the cytotoxicity (GMK cells [2]; 10 µg/ml) was “-”. The minimum cytotoxic concentration (MT-4 cells; MT-4 cells, in parentheses) was > 125 µg/mL, the “Mean Survival Days” value (HSV-1 (Miyama strain); [6]) was 13.7 ± 1.6 days and the “Survival Ratio at 21 days (%)” value (HSV-1 (Miyama strain); [6]) was 20%. For the same molecule, the “Mean Survival Days” value (HSV-1 (Miyama strain); [7]) was 16.4 ± 2.0 days and the “Survival Ratio at 21 days (%)” value (HSV-1 (Miyama strain); [7]) was 40%.
`CCCCCCCC(=O)N1CCN(c2ccccc2Cl)CC1` [Compound of Example 9, 1-(2-Chlorophenyl)-4-octanoylpiperazine] was tested, and the log reduction at 5 µg/mL ([1]; 5 µg/ml) was 0.83, the log reduction at 10 µg/mL [1] was > 3 and the MIC (HIV; [5]) was > 125 µg/mL. The cytotoxicity (GMK cells [2]; 5 µg/ml) was “-”, the cytotoxicity (GMK cells [2]; 10 µg/ml) was “±” and the minimum cytotoxic concentration (MT-4 cells; MT-4 cells, in parentheses) was > 250 µg/mL. The “Mean Survival Days” value (HSV-1 (Miyama strain); [6]) was 14.2 ± 1.5 days, the “Survival Ratio at 21 days (%)” value (HSV-1 (Miyama strain); [6]) was 20% and the “Mean Survival Days” value (HSV-1 (Miyama strain); [7]) was 18.7 ± 1.8 days. For the same molecule, the “Survival Ratio at 21 days (%)” value (HSV-1 (Miyama strain); [7]) was 60%.
`COc1cc2c(=O)n(N3CCN(c4ccccc4C(F)(F)F)CC3)ncc2c(OC)c1OC` [Compound of Example 19, 2-[4-(2-Trifluoromethylphenyl)-1-piperazinyl]-5,6,7-trimethoxy-1(2H)-phthalazinone] was tested, and the MIC (HIV; [5]) was 31 µg/mL (≈ 66.7 µM), the “Antiviral Activity (ΔTCID₅₀(log₁₀))” value ([3]; 5 µg/ml) was 1.17 log₁₀ and the “Antiviral Activity (ΔTCID₅₀(log₁₀))” value ([3]; 10 µg/ml) was > 3.00 log₁₀. For the same molecule, the minimum cytotoxic concentration (MT-4 cells; MT-4 cells, in parentheses) was > 125 µg/mL, the cytotoxicity (GMK cells [4]; 5 µg/ml) was “-” and the cytotoxicity (GMK cells [4]; 10 µg/ml) was “+”.
In the case of `CC[C@@]12C=C(C(=O)OCCN3CCN(c4ccccc4OC)CC3)n3c4c(c5ccccc53)CCN(CCC1)[C@H]42` [Compound of Example 27, (3α,16α)-Eburunamenine-14-carboxylic acid 2-[4-(2-methoxyphenyl)piperazine-1-yl]ethyl ester], the MIC (HIV; [8]) is reported as 8 µg/mL (≈ 14.8 µM), the “Antiviral Activity (ΔTCID₅₀(log₁₀))” value ([3]; 5 µg/ml) is reported as 1.00 log₁₀ and the “Antiviral Activity (ΔTCID₅₀(log₁₀))” value ([3]; 10 µg/ml) is reported as 3.00 log₁₀. For the same molecule, the minimum cytotoxic concentration (MT-4 cells) was 63 µg/mL, the cytotoxicity (GMK cells [4]; 5 µg/ml) was “-” and the cytotoxicity (GMK cells [4]; 10 µg/ml) was “±”.
For `CC[C@@]12C=C(C(=O)OCCN3CCN(c4ccccc4Cl)CC3)n3c4c(c5ccccc53)CCN(CCC1)[C@H]42` [Compound of Example 28, (3α,16α)-Eburunamenine-14-carboxylic acid 2-[4-(2-chlorophenyl)piperazine-1-yl]ethyl ester], the MIC (HIV; [8]) was 4 µg/mL (≈ 7.34 µM), the “Antiviral Activity (ΔTCID₅₀(log₁₀))” value ([3]; 5 µg/ml) was 2.00 log₁₀ and the “Antiviral Activity (ΔTCID₅₀(log₁₀))” value ([3]; 10 µg/ml) was 3.00 log₁₀. For the same molecule, the minimum cytotoxic concentration (MT-4 cells) was 63 µg/mL, the cytotoxicity (GMK cells [4]; 5 µg/ml) was “-” and the cytotoxicity (GMK cells [4]; 10 µg/ml) was “+”.
